{
  "source": "patent US20110105389A1",
  "about": "(priority 2009, published 2011)",
  "system": "male Zucker fatty rats",
  "assay": "Subchronic (7 day) oral administration in male Zucker fatty rats, Method B14",
  "assay_type": "in vivo, rat",
  "excerpt": "B14. Effects of Subchronic Administration of Representative Compounds of the Invention in Male Zucker Fatty Rats\nThe objective of this study is to determine the subchronic effects of test compounds on body weight change, food and water consumption, as well as glucose homeostasis and insulin levels in male Zucker fatty rats up to 7 days upon oral administration. The male Zucker fatty rat was selected as an insulin resistance and genetically defined obesity model which is sensitive to the effect of different insulin sensitizers in acute as well as in chronic settings.\nRats were individually housed in rodent cages with soft wood bedding on the bottom and equipped with water bottles. All individual cages were clearly labeled with a cage card indicating study number, group, animal number and dose level. Each animal was uniquely identified by an animal number. The animal number was designated the day the animals arrived at the animal facility. The animal room environment was controlled (targeted ranges: temperature 22±2° C.; relative humidity 50±10%; light/dark cycle: 12 hours light, 12 hours dark, lights on from 06:00 AM to 06:00 PM). A regular rodent diet (Charles River 5075 rodent chow, Purina Mills, Canada) was provided to the animals ad libitum, after food weighing. Municipal tap water was provided to the animals ad libitum via water bottles. Fresh tap water was provided after water bottle weighing.\nAn acclimation period of approximately 7 days for all groups was allowed between the receipt of animals and the start of treatment to accustom the rats to the laboratory environment. On experimental day −7, animals were stratified according to body weight into an appropriate number of groups of 4 or 8 animals each.\nTest compound was administered, as a solution, orally, at the doses indicated. The dose volume was 5 mL/kg/day. Groups were dosed once daily around 8:00 a.m. On Day 3, on half of the animals (Subset A) and on Day 4 on the other half (Subset B), an OGTT was performed 2 hrs post-dosing (around 10:00 a.m.). The OGTT was repeated the same way on Days 7 (Subset A) and 8 (Subset B).\nFor the study animals, the data collected from study Days −7 to 8 are reported. Body weights were recorded for all animals on Day −7 prior to initiation of dosing, at the time of group assignment and daily throughout the study period (Day 1-8). Food and water intake was measured daily throughout the study period (Day 1-8). On Day 1 (Subset A), Day 2 (Subset B), Day 3 (Subset A), Day 4 (Subset B), Day 7 (Subset A) and Day 8 (Subset B), animals from Groups 2 and 3 were sampled for blood into EDTA coated tubes (K2-EDTA microtainer tubes, Becton Dickinson) from a tail vein (˜100 μl) 2 hrs post-dose for PK analysis. Blood was centrifuged at 4000 rpm for 10 min. at 4° C., and the resulting plasma transferred into non-coated tubes and stored at −80° C. until analysis.\nAn oral glucose tolerance test (OGTT) was carried out in animals of all groups on Day 3 (half of the animals) as well as on day 4 (other half of the animals). This was done 2 hrs post-dose. Animals were subjected to an overnight fast (food removed the day before at 5:00 PM). Blood samples of approximately 20 μL each for plasma glucose and 230 μL for plasma insulin measurements were collected into EDTA coated tubes (K2-EDTA microtainer tubes, Becton Dickinson) from a tail vein, at 0 (pre-glucose), 15, 30, 60, and 120 min after oral administration of 1.5 g/kg glucose (dextrose, Sigma Aldrich, 450 mg/mL dosing solution). The glucose solution was administered by oral gavage via a stainless steel feeding needle (18×2″, Popper @ Sons, cat. # 20068-642, VWR). While glucose concentrations were determined from a 20 μL drop of blood (Accu-Chek Aviva glucometers, Roche Diagnostics), the remaining 230 μL was centrifuged at 4000 rpm for 10 min. at 4° C., and the resulting plasma transferred into non-coated tubes and stored a −80° C. for insulin determination. […]",
  "data": [
    {"compound": "CC[C@@H]1CCc2ccc(F)cc2OCCN[C@@H](C(C)C)C(=O)N(C)[C@@H](C(C)O)C(=O)N[C@H](Cc2c[nH]c3ccccc23)C(=O)N1", "note": "(some centres unmarked) [Compound 1505]", "values": [
      {"measurement": "food consumption on a daily basis vs vehicle controls", "setting": "10 mg/kg, 2 day timepoint", "value": "significant reductions"},
      {"measurement": "cumulative food consumption", "setting": "30 mg/kg oral, FIG. 10", "value": "significant decrease"},
      {"measurement": "net body weight", "setting": "30 mg/kg oral, over the 7 day study period, FIG. 9", "value": "significant reduction"},
      {"measurement": "food consumption on a daily basis vs vehicle controls", "setting": "30 mg/kg, 2 day timepoint", "value": "significant reductions"},
      {"measurement": "OGTT blood glucose versus untreated controls", "setting": "30 mg/kg, at both day 3 and day 7", "value": "decrease"},
      {"measurement": "insulin sensitivity index", "setting": "attaining significance at the higher dose", "value": "higher"},
      {"measurement": "free fatty acids", "setting": "both treatment groups", "value": "significantly reduced"},
      {"measurement": "total cholesterol", "setting": "both treatment groups", "value": "significantly reduced"},
      {"measurement": "food consumption on a daily basis vs vehicle controls", "setting": "higher dose (30 mg/kg), through the 6 day timepoint", "value": "remained significant"},
      {"measurement": "plasma levels (PK analysis)", "setting": "oral administration", "value": "sufficient plasma levels"},
      {"measurement": "insulin levels (area under the curve, AUC) in OGTT", "setting": "rat, in vivo", "value": "lowering effect"}
    ]}
  ]
}
